target: FXa (Homo sapiens, UniProt P00742); test: Inhibition of factor Xa (Table 1, Pharmacological Data); format: biochemical
Sequence (P00742 235-488 limits assumed): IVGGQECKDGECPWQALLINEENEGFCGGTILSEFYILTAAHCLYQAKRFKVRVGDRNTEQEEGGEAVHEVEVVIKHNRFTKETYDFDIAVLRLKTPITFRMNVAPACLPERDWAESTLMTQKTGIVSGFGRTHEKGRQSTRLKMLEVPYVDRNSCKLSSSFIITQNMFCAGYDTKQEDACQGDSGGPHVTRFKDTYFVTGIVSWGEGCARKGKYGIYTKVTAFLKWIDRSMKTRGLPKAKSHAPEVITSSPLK
Sequence (P00742 41-179 limits assumed): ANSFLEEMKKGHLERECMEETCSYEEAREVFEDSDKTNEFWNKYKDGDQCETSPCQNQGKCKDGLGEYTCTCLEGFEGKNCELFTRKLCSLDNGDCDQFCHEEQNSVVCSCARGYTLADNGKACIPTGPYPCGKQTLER

`O=C1COCCN1c1ccc(NC(=O)N2CCCN2C(=O)Nc2ccc(Cl)cc2)cc1Cl` [Compound A2, 1-N-[(4-chlorophenyl)]-2-N-{[3-chloro-4-(3-oxomorpholin-4-yl)phenyl]}-pyrazolidine-1,2-dicarboxamide] was tested. Which IC50 did it give?
The IC50 was 120 nM.

How did the IC50 turn out when `O=C(Nc1ccc(Br)cc1)N1CCCN1C(=O)Nc1ccc(-n2ccccc2=O)cc1` [Compound A3, 1-N-[(4-bromophenyl)]-2-N-{[4-(2-oxo-2H-pyridin-1-yl)phenyl]}pyrazolidine-1,2-dicarboxamide] was run?
The IC50 was 55 nM.

For `C#Cc1ccc(NC(=O)N2CCCN2C(=O)Nc2ccc(N3CCOCC3=O)c(Cl)c2)cc1` [Compound A1, 1-N-[(4-Ethynylphenyl)]-2-N-{[3-chloro-4-(3-oxomorpholin-4-yl)phenyl]}-pyrazolidine-1,2-dicarboxamide], which IC50 is on record?
Its IC50 is 75 nM.

— US7557102B2, “Pyrazolidine-1,2-dicarboxyldiphenylamide derivatives as coagulation factor Xa inhibitors for the treatment of thromboses” (Merck Patent GmbH, priority 2003, dated 2009)
